Source: patent US8022225B2, “Triazole derivative” (Taisho Pharmaceutical Co., Ltd, priority 2004, dated 2011)

Tests used:
[1] = molecular target: T1, human Edg-1(S1P1) (Homo sapiens, UniProt P21453); assay: Cell system binding test: inhibition of [3H]-S1P binding to Edg-1(S1P1) gene transferred HEK-293 cells; conditions: 10 μM compound, [3H]-S1P 10 nM, read-out: Cell system binding test % inhibition (10 μM)
T1 construct: expressed in transfected cells; host or cells: HEK-293

[2] = molecular target: T1, human Edg-1(S1P1); assay: Membrane system binding test: inhibition of [33P]-S1P binding to the membrane fraction of Edg-1(S1P1) gene transferred HEK-293 cells; conditions: 10 μM compound; [33P]-S1P 0.1 nM; membrane fraction of Edg-1(S1P1) gene transferred HEK-293 cells; read-out: Membrane system binding test % inhibition (10 μM)
How it was run: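 Membranes from HEK-293 cells transfected with Edg-1(S1P1) incubated 1 h at 30 °C with 0.1 nM [^33P]-S1P and compound at 10^−5 M (0.1% DMSO), pH 7.4 buffer with fatty acid-free BSA. Filter-bound radioactivity counted; inhibition rate calculated against no-compound binding, with untransfected-cell background subtracted.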

T1 sequence (P21453 whole entry): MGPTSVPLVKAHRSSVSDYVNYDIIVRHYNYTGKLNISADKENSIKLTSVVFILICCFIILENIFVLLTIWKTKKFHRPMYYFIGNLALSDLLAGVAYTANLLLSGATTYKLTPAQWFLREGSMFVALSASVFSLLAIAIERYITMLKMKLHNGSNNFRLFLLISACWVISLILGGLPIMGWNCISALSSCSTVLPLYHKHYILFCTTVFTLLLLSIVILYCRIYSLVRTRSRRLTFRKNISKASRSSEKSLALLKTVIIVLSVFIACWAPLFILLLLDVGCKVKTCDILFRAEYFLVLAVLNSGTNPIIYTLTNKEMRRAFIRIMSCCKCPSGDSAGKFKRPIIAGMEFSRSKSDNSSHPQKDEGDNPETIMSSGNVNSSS

Row | SMILES | inhibition at 10 µM [1] [%] | inhibition at 10 µM [2] [%]
1 | CCn1c(OC)nnc1[C@@H](C)NS(=O)(=O)c1ccc2c(c1)CCO2 [Compound 337] | 102 | 61.3
2 | CCn1c(OC)nnc1[C@@H](C)NS(=O)(=O)c1ccc2c(c1)OCCO2 [Compound 338] | 103 | 69.4
3 | CCn1c(OC)nnc1[C@@H](C)NS(=O)(=O)c1ccc2nsnc2c1 [Compound 341] | 99.4 | 99.4
4 | CCn1c(OC)nnc1[C@@H](C)NS(=O)(=O)c1ccc2c(c1)OCCCO2 [Compound 343] | 98.9 | 41.4
5 | CCn1c(OC)nnc1[C@@H](C)NS(=O)(=O)c1ccc2c(c1)OCCN2C [Compound 344] | 102 | 65.8
6 | CCn1c(OC)nnc1[C@@H](C)NS(=O)(=O)c1cccc(C(C)=O)c1 [Compound 355] | 101 | 62.8
7 | CCn1c(OC)nnc1[C@@H](C)NS(=O)(=O)c1cccc2cnccc12 [Compound 365] | 81.7 | 41.8
8 | CCn1c(OC)nnc1[C@@H](C)NS(=O)(=O)c1cc(C)sc1C [Compound 367] | 97 | 41.8
9 | CCn1c(OC)nnc1[C@@H](C)NS(=O)(=O)c1csc2ccccc12 [Compound 368] | 102 | 85.1
10 | CCn1c(OC)nnc1[C@@H](C)NS(=O)(=O)c1cc2ccccc2s1 [Compound 369] | 105 | 102
11 | CCn1c(OC)nnc1[C@@H](C)NS(=O)(=O)c1cc(Br)cc(C(F)(F)F)c1 [Compound 371] | 102 | 61.2
12 | CCn1c(OC)nnc1[C@@H](C)NS(=O)(=O)c1ccc(Br)c(C(F)(F)F)c1 [Compound 372] | 105 | 94.3
13 | CCn1c(OCCOC)nnc1[C@@H](C)NS(=O)(=O)c1ccc(Cl)cc1 [Compound 375] | 92.6 | 54.3
14 | CCn1c(OCC(C)(C)C)nnc1[C@@H](C)NS(=O)(=O)c1ccc(Cl)cc1 [Compound 377] | 97.9 | 90.3
15 | CCn1c(OCC2CCCCC2)nnc1[C@@H](C)NS(=O)(=O)c1ccc(Cl)cc1 [Compound 378] | 103 | 87.2
16 | CCn1c(OC(C)C)nnc1[C@@H](C)NS(=O)(=O)c1ccc(Cl)cc1 [Compound 379] | 99.7 | 93.4

Row | SMILES | inhibition at 10 µM [1] [%] | inhibition at 10 µM [2] [%]
17 | CCn1c(OCCCCCO)nnc1[C@@H](C)NS(=O)(=O)c1ccc(Cl)cc1 [Compound 380] | 105 | 85.2
18 | CCn1c(OCc2ccccc2)nnc1[C@@H](C)NS(=O)(=O)c1ccc(Cl)cc1 [Compound 381] | 97.1 | 94.9
19 | CCn1c(OC2CCCC2)nnc1[C@@H](C)NS(=O)(=O)c1ccc(Cl)cc1 [Compound 382] | 97.8 | 99.6
20 | CCN(CC)C(=O)COc1nnc([C@@H](C)NS(=O)(=O)c2ccc(Cl)cc2)n1CC [Compound 383] | 82.2 | 66
21 | C=CCCCOc1nnc([C@@H](C)NS(=O)(=O)c2ccc(Cl)cc2)n1CC [Compound 384] | 104 | 93.5
22 | CCn1c(OCC2CCC2)nnc1[C@@H](C)NS(=O)(=O)c1ccc(Cl)cc1 [Compound 385] | 99.9 | 90.1
23 | CCCOc1nnc([C@@H](Cc2ccccc2)NS(=O)(=O)c2ccc(Cl)cc2)n1CC [Compound 386] | 103 | 99.5
24 | CCn1c(OC2CCC2)nnc1[C@@H](C)NS(=O)(=O)c1ccc(Cl)cc1 [Compound 387] | 102 | 99.3
25 | CCn1c(OC2CCCCC2)nnc1[C@@H](C)NS(=O)(=O)c1ccc(Cl)cc1 [Compound 388] | 104 | 103
26 | CCn1c(OCC(C)C)nnc1[C@@H](C)NS(=O)(=O)c1ccc(Cl)cc1 [Compound 389] | 96.3 | 89.6
27 | CCn1c(OC)nnc1[C@@H](Cc1ccccc1)NS(=O)(=O)c1ccc(Cl)cc1 [Compound 390] | 101 | 99.8
28 | CCn1c(OCCC(C)C)nnc1[C@@H](C)NS(=O)(=O)c1ccc(Cl)cc1 [Compound 391] | 92.5 | 78.3
29 | CCn1c(OC2CCOC2)nnc1[C@@H](C)NS(=O)(=O)c1ccc(Cl)cc1 (some centres unmarked) [Compound 392] | 95.6 | 85.1
30 | CCn1c(OCCN2CCOCC2)nnc1[C@@H](C)NS(=O)(=O)c1ccc(Cl)cc1 [Compound 393] | 82.4 | 65.3
31 | CCn1c(OCCCN2CCOCC2)nnc1[C@@H](C)NS(=O)(=O)c1ccc(Cl)cc1 [Compound 394] | 82.9 | 76.9
